According to patent publication US20240083857A1, “2-Methyl-Quinazolines” (Bayer Pharma Aktiengesellschaft, priority 2017, published 2024):

How the values were obtained:
[1] = molecular target: Epidermal Growth Factor Receptor (EGFR) (Homo sapiens (Human), UniProt P00533); experiment: EGFR kinase assay (TR-FRET); format: biochemical; settings: values given in μM; read-out: EGFR kinase inhibition IC50
How it was run: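 EGFR purified from A431 cells was preincubated with compound 15 min at 22° C in pH 7.0 Hepes buffer with MgCl2, MnCl2 and vanadate before reaction with a biotinylated peptide. After EDTA stop, phosphopeptide was detected by TR-FRET (anti-phosphotyrosine Tb-cryptate, streptavidin-XL665) as the 665/620 nm emission ratio.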

[2] = molecular target: human SOS1 (nucleotide exchange of K-Ras^G12C) (Homo sapiens, UniProt Q07889); experiment: Biochemical assay 2: K-Ras^G12C activation assay by hSOS1 at high GTP concentration (HTRF); settings: high GTP; read-out: Assay 2 (KRAS-Activation by SOS high GTP) activity expressed as IC50

Sequence of Epidermal Growth Factor Receptor (EGFR) (P00533 25-1210): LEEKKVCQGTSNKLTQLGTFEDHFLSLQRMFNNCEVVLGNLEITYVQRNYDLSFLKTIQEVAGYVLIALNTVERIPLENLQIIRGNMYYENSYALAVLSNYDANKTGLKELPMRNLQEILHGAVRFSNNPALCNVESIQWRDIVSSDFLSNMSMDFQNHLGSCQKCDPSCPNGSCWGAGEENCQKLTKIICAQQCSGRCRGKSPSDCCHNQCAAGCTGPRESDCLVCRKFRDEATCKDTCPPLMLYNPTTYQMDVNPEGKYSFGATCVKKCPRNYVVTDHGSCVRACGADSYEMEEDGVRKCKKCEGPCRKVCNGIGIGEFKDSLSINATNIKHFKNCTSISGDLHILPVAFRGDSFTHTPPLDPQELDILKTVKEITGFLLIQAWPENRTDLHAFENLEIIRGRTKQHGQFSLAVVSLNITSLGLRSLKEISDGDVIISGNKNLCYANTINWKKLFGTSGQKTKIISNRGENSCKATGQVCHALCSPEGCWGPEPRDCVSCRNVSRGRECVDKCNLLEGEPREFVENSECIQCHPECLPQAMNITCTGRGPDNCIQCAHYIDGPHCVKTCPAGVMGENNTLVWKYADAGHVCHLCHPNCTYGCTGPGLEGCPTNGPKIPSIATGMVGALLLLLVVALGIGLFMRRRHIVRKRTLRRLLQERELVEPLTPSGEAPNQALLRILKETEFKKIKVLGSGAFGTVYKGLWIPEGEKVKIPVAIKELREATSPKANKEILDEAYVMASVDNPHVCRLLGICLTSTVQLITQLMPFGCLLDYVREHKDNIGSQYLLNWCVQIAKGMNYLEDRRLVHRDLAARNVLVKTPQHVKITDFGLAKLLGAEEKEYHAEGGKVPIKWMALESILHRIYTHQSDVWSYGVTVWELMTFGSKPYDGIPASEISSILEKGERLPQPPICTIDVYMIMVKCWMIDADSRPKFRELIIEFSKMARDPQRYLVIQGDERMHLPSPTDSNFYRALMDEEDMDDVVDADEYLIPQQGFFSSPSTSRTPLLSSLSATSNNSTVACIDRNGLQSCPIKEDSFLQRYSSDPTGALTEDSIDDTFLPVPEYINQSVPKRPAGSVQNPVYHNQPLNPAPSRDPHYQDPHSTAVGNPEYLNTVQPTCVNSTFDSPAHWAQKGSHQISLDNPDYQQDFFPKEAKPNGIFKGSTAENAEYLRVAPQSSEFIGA

COc1cc2nc(C)nc(NC(C)c3ccc(-c4cnc5n4CCC5)s3)c2cc1OC (single isomer, unassigned; enantiomer 1) [Example 328, N-{1-[5-(6,7-dihydro-5H-pyrrolo[1,2-a]imidazol-3-yl)thiophen-2-yl]ethyl}-6,7-dimethoxy-2-methylquinazolin-4-amine, Enantiomer 1]
IC50 [1]: > 20 µM
IC50 [2]: 526 nM

COc1cc2nc(C)nc(NC(C)c3ccc(-c4cnc5n4CCC5)s3)c2cc1OC (single isomer, unassigned; enantiomer 2) [Example 329, N-{1-[5-(6,7-dihydro-5H-pyrrolo[1,2-a]imidazol-3-yl)thiophen-2-yl]ethyl}-6,7-dimethoxy-2-methylquinazolin-4-amine, Enantiomer 2]
IC50 [1]: > 20 µM
IC50 [2]: 6470 nM

COc1cc2nc(C)nc(NC(C)c3ccc(-c4ccc(F)cc4CNC(=O)[C@H]4CCCN4)s3)c2cc1OC (stereo in doubt) [Example 316, N-[2-(5-{1-[(6,7-dimethoxy-2-methylquinazolin-4-yl)amino]ethyl}thiophen-2-yl)-5-fluorobenzyl]-prolinamide]
IC50 [1]: > 20 µM
IC50 [2]: 284 nM

COc1cc2nc(C)nc(NC(C)c3cccc4scnc34)c2cc1OC (stereo not drawn) [Example 14, N-[1-(1,3-benzothiazol-4-yl)ethyl]-6,7-dimethoxy-2-methylquinazolin-4-amine]
IC50 [1]: > 20 µM
IC50 [2]: 608 nM

COc1cc2nc(C)nc(NC(C)c3cccc4ccsc34)c2cc1OC (stereo not drawn) [Example 15, N-[1-(1-benzothiophen-7-yl)ethyl]-6,7-dimethoxy-2-methylquinazolin-4-amine]
IC50 [1]: > 20 µM
IC50 [2]: 91.1 nM

COc1cc2nc(C)nc(NC(C)c3cc(C)cc4[nH]ncc34)c2cc1OC (stereo not drawn) [Example 16, 6,7-dimethoxy-2-methyl-N-[1-(6-methyl-1H-indazol-4-yl)ethyl]quinazolin-4-amine]
IC50 [1]: > 20 µM
IC50 [2]: 3020 nM

COc1cc2nc(C)nc(NC(C)c3cccc4c3cnn4C)c2cc1OC (stereo not drawn) [Example 17, 6,7-dimethoxy-2-methyl-N-[1-(1-methyl-1H-indazol-4-yl)ethyl]quinazolin-4-amine]
IC50 [1]: > 20 µM
IC50 [2]: 297 nM

COc1cc2nc(C)nc(NC(C)c3c(F)ccc4[nH]ncc34)c2cc1OC (stereo not drawn) [Example 18, N-[1-(5-fluoro-1H-indazol-4-yl)ethyl]-6,7-dimethoxy-2-methylquinazolin-4-amine]
IC50 [1]: > 20 µM
IC50 [2]: 7680 nM

COc1cc2nc(C)nc(NC(C)c3ccc4c(c3)OCCO4)c2cc1OC (stereo not drawn) [Example 19, N-[1-(2,3-dihydro-1,4-benzodioxin-6-yl)ethyl]-6,7-dimethoxy-2-methylquinazolin-4-amine]
IC50 [1]: > 20 µM
IC50 [2]: 6550 nM

COc1cc2nc(C)nc(NC(C)c3cc4ccccc4o3)c2cc1OC (stereo not drawn) [Example 20, N-[1-(1-benzofuran-2-yl)ethyl]-6,7-dimethoxy-2-methylquinazolin-4-amine]
IC50 [1]: > 20 µM
IC50 [2]: 8200 nM

COc1cc2nc(C)nc(NC(C)c3cccc(OC)c3OC)c2cc1OC (stereo not drawn) [Example 21, N-[1-(2,3-dimethoxyphenyl)ethyl]-6,7-dimethoxy-2-methylquinazolin-4-amine]
IC50 [1]: > 20 µM
IC50 [2]: 3230 nM

COc1cc2nc(C)nc(N[C@H](C)c3cccc(-c4ccccc4CN)c3)c2cc1OC [Example 258, N-{(1R)-1-[2′-(aminomethyl)biphenyl-3-yl]ethyl}-6,7-dimethoxy-2-methylquinazolin-4-amine]
IC50 [1]: > 20 µM
IC50 [2]: 190 nM

COc1cc2nc(C)nc(NC(C)c3csc(-c4ccccc4CN)c3)c2cc1OC (stereo not drawn) [Example 259, N-[1-{5-[2-(aminomethyl)phenyl]thiophen-3-yl}ethyl]-6,7-dimethoxy-2-methylquinazolin-4-amine]
IC50 [1]: > 20 µM
IC50 [2]: 435 nM

COc1cc2nc(C)nc(N[C@H](C)c3cccc(CN)c3)c2cc1OC [Example 260, N-{(1R)-1-[3-(aminomethyl)phenyl]ethyl}-6,7-dimethoxy-2-methylquinazolin-4-amine]
IC50 [1]: > 20 µM
IC50 [2]: 2040 nM

COc1cc2nc(C)nc(N[C@H](C)c3cccc(-c4cnc5n4CCC5)c3)c2cc1OC [Example 261, N-{(1R)-1-[3-(6,7-dihydro-5H-pyrrolo[1,2-a]imidazol-3-yl)phenyl]ethyl}-6,7-dimethoxy-2-methylquinazolin-4-amine]
IC50 [1]: > 20 µM
IC50 [2]: 873 nM

COc1cc2nc(C)nc(NC(C)c3ccc(-c4ccccc4CN(C)C)s3)c2cc1OC (stereo not drawn) [Example 262, N-[1-(5-{2-[(dimethylamino)methyl]phenyl}thiophen-2-yl)ethyl]-6,7-dimethoxy-2-methylquinazolin-4-amine]
IC50 [1]: > 20 µM
IC50 [2]: 44 nM

CNCc1ccccc1-c1cc(C(C)Nc2nc(C)nc3cc(OC)c(OC)cc23)cs1 (stereo not drawn) [Example 263, 6,7-dimethoxy-2-methyl-N-[1-(5-{2-[(methylamino)methyl]phenyl}thiophen-3-yl)ethyl]quinazolin-4-amine]
IC50 [1]: > 20 µM
IC50 [2]: 232 nM

COc1cc2nc(C)nc(NC(C)c3cc(Br)cs3)c2cc1OC (stereo not drawn) [Example 264, N-[1-(4-bromothiophen-2-yl)ethyl]-6,7-dimethoxy-2-methylquinazolin-4-amine]
IC50 [1]: > 20 µM
IC50 [2]: 1670 nM

COc1cc2nc(C)nc(NC(C)c3ccc(-c4cccc(CN)c4)s3)c2cc1OC (stereo not drawn) [Example 265, N-[1-{5-[3-(aminomethyl)phenyl]thiophen-2-yl}ethyl]-6,7-dimethoxy-2-methylquinazolin-4-amine]
IC50 [1]: > 20 µM
IC50 [2]: 1470 nM

COc1cc2nc(C)nc(NC(C)c3ccc(-c4ccc(CN)cc4)s3)c2cc1OC (stereo not drawn) [Example 266, N-[1-{5-[4-(aminomethyl)phenyl]thiophen-2-yl}ethyl]-6,7-dimethoxy-2-methylquinazolin-4-amine]
IC50 [1]: > 20 µM
IC50 [2]: 1700 nM

COc1cc2nc(C)nc(NC(C)c3cc(-c4ccn(CCN5CCCC5)n4)cs3)c2cc1OC (stereo not drawn) [Example 267, 6,7-dimethoxy-2-methyl-N-[1-(4-{1-[2-(pyrrolidin-1-yl)ethyl]-1H-pyrazol-3-yl}thiophen-2-yl)ethyl]quinazolin-4-amine]
IC50 [1]: > 20 µM
IC50 [2]: 1520 nM

CNCc1ccccc1-c1cccc([C@@H](C)Nc2nc(C)nc3cc(OC)c(OC)cc23)c1 [Example 268, 6,7-dimethoxy-2-methyl-N-[(1R)-1-{2′-[(methylamino)methyl]biphenyl-3-yl}ethyl]quinazolin-4-amine]
IC50 [1]: > 20 µM
IC50 [2]: 151 nM

COc1cc2nc(C)nc(NC(C)c3cc(-c4ccc(F)cc4CN)cs3)c2cc1OC (stereo not drawn) [Example 269, N-[1-{4-[2-(aminomethyl)-4-fluorophenyl]thiophen-2-yl}ethyl]-6,7-dimethoxy-2-methylquinazolin-4-amine]
IC50 [1]: > 20 µM
IC50 [2]: 115 nM

COc1cc2nc(C)nc(NC(C)c3cc(-c4ccccc4CN)cs3)c2cc1OC (stereo not drawn) [Example 270, N-[1-{4-[2-(aminomethyl)phenyl]thiophen-2-yl}ethyl]-6,7-dimethoxy-2-methylquinazolin-4-amine]
IC50 [1]: > 20 µM
IC50 [2]: 82.2 nM

COc1cc2nc(C)nc(NC(C)c3cc(-c4cnc5n4CCC5)cs3)c2cc1OC (stereo not drawn) [Example 272, N-{1-[4-(6,7-dihydro-5H-pyrrolo[1,2-a]imidazol-3-yl)thiophen-2-yl]ethyl}-6,7-dimethoxy-2-methylquinazolin-4-amine]
IC50 [1]: > 20 µM
IC50 [2]: 1500 nM

COc1cc2nc(C)nc(NC(C)c3cc(-c4ccn(CCO)n4)cs3)c2cc1OC (stereo not drawn) [Example 273, 2-[3-(5-{1-[(6,7-dimethoxy-2-methylquinazolin-4-yl)amino]ethyl}thiophen-3-yl)-1H-pyrazol-1-yl]ethanol]
IC50 [1]: > 20 µM
IC50 [2]: 2360 nM

COc1cc2nc(C)nc(N[C@H](C)c3cccc(-c4ccc(F)cc4CN)c3)c2cc1OC [Example 274, N-{(1R)-1-[2′-(aminomethyl)-4′-fluorobiphenyl-3-yl]ethyl}-6,7-dimethoxy-2-methylquinazolin-4-amine]
IC50 [1]: > 20 µM
IC50 [2]: 141 nM

COc1cc2nc(C)nc(NC(C)c3ccc(-c4ccc(CN)o4)s3)c2cc1OC (stereo not drawn) [Example 275, N-[1-{5-[5-(aminomethyl)furan-2-yl]thiophen-2-yl}ethyl]-6,7-dimethoxy-2-methylquinazolin-4-amine]
IC50 [1]: > 20 µM
IC50 [2]: 2970 nM

COc1cc2nc(C)nc(NC(C)c3ccc(-c4ccc(CN)s4)s3)c2cc1OC (stereo not drawn) [Example 276, N-{1-[5′-(aminomethyl)-2,2′-bithiophen-5-yl]ethyl}-6,7-dimethoxy-2-methylquinazolin-4-amine]
IC50 [1]: > 20 µM
IC50 [2]: 1660 nM

COc1cc2nc(C)nc(NC(C)c3ccc(-c4ccccc4CNCC(=O)c4c[nH]c5ccccc45)s3)c2cc1OC (stereo not drawn) [Example 277, 2-{[2-(5-{1-[(6,7-dimethoxy-2-methylquinazolin-4-yl)amino]ethyl}thiophen-2-yl)benzyl]amino}-1-(1H-indol-3-yl)ethanone]
IC50 [1]: > 20 µM
IC50 [2]: 237 nM

COc1cc2nc(C)nc(NC(C)c3ccc(-c4cccc5sc(C(N)=O)c(N)c45)s3)c2cc1OC (stereo not drawn) [Example 278, 3-amino-4-(5-{1-[(6,7-dimethoxy-2-methylquinazolin-4-yl)amino]ethyl}thiophen-2-yl)-1-benzothiophene-2-carboxamide]
IC50 [1]: > 20 µM
IC50 [2]: 3710 nM

COC(=O)CNCc1ccccc1-c1ccc(C(C)Nc2nc(C)nc3cc(OC)c(OC)cc23)s1 (stereo not drawn) [Example 281, methyl N-[2-(5-{1-[(6,7-dimethoxy-2-methylquinazolin-4-yl)amino]ethyl}thiophen-2-yl)benzyl]glycinate]
IC50 [1]: > 20 µM
IC50 [2]: 447 nM

COc1cc2nc(C)nc(NC(C)c3ccc(-c4ccccc4CNCC(=O)N4CCOCC4)s3)c2cc1OC (stereo not drawn) [Example 285, 2-{[2-(5-{1-[(6,7-dimethoxy-2-methylquinazolin-4-yl)amino]ethyl}thiophen-2-yl)benzyl]amino}-1-(morpholin-4-yl)ethanone]
IC50 [1]: > 20 µM
IC50 [2]: 158 nM
